One compound from paper PMC10482274, “Probing the substrate binding modes and catalytic mechanisms of BLEG-1, a promiscuous B3 metallo-β-lactamase with glyoxalase II properties” (PLOS ONE, 2023) can be followed below.

The target of the test is T1, BLEG-1 (B3 metallo-β-lactamase) (Shouchella lehensis, UniProt A0A060M4R1).
T1 construct: gene BleG1_2478; wild-type recombinant BLEG-1 (26 kDa), purified by Ni-NTA
The test is described as follows: circular dichroism titration ([…] nm, non-linear regression); hydrolysis assay at […] nm with the purified enzyme. It is filed as binding.

T1 sequence (A0A060M4R1 entry or part of it): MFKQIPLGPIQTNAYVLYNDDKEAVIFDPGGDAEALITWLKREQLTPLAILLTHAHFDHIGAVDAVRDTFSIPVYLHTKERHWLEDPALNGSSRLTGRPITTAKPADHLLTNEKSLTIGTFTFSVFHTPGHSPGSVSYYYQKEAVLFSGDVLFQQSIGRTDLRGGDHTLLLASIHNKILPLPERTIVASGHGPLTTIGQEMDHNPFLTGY

The compound `CC1(C)S[C@@H]2[C@H](NC(=O)[C@H](N)c3ccccc3)C(=O)N2[C@H]1C(=O)O` [ampicillin] returned a Kd of 1.51 µM.
